The results in this text go back to patent US20250332173A1, “COMPOUNDS AND METHODS FOR MODULATING NUCLEIC ACID SPLICING” (REMIX THERAPEUTICS INC., priority 2021, published 2025).

One may read the IC50 as the point on the concentration scale where inhibition reaches its midpoint.

SMILES strings stand for the structures.

The first assay has as its system Target C. Briefly: HiBiT protein abundance assay, Target C HiBiT K562 cell line. It is filed as cell-based. The conditions noted are these: Homo sapiens; HiBiT lytic detection, modified K562 cells, 24 hours, top dose 10 μM; read-out: Effect on protein abundance, Target C (IC50). In outline: (§1)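 Protein abundance was read by Nano-Glo HiBiT lytic luminescence after 24 h compound exposure (10-point, threefold series from 10 μM final) of HiBiT knock-in K562 cells. Parental K562 served as baseline; the 50%-abundance concentration was interpolated from a four-parameter logistic fit.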
(In general: With HiBiT, luminescence reflects the tagged protein that the partner subunit can reach.)
`Cc1cn2nc(-c3ccc4c(=O)n(C5CC(C)N[C@H](C)C5)ncc4n3)cc(C)c2n1` (stereo in doubt) [Compound 1536, 2-(2,8-dimethylimidazo[1,2-b]pyridazin-6-yl)-6-[(2S,6R)-2,6-dimethyl-4-piperidyl]pyrido[2,3-d]pyridazin-5-one]: the 50% inhibitory concentration (IC50) was in the range of 0.1 to 1 µM.

For `Cn1cc2cc(-c3ncc4c(=O)n([C@@H]5CCNC5)ccc4n3)c(O)c(F)c2n1` [Compound 1466], the half-maximal inhibitory concentration (IC50) lay within 0.1 to 1 µM.

Consider `Cc1c(O)c(-c2ccc3c(=O)n(C4CCNC4)cc(C)c3n2)cc2cn(C)nc12` (centres unmarked) [Compound 1467], for which the IC50 is 1 to 10 µM.

In the case of `Cn1cc2cc(-c3ncc4c(=O)n(C56CCC(N)(CC5)C6)ccc4n3)c(O)c(F)c2n1` [Compound 1468], the concentration for half-maximal inhibition (IC50) lay within 0.1 to 1 µM.

As to `Cc1cn2cc(-c3ncc4c(=O)n(C56CCC(N)(CC5)C6)ccc4n3)cc(F)c2n1` [Compound 1469, 6-(4-aminonorbornane-1-yl)-2-(8-fluoro-2-methyl-imidazo[1,2-a]pyridin-6-yl)pyrido[4,3-d]pyrimidin-5-one], the IC50 fell in the range of 1 to 10 µM.

On to `Cn1cc2cc(-c3ncc4c(=O)n(C56CCC(N)(CC5)C6)ccc4n3)c(O)cc2n1` [Compound 1470], for which the IC50 fell in the range of 1 to 10 µM.

Take `Cc1c(O)c(-c2ncc3c(=O)n([C@@H]4C[C@H]5COC[C@@H](C4)N5)ccc3n2)cc2cn(C)nc12` [Compound 1471]: the IC50 lay within 0.1 to 1 µM.

On to `Cc1c(O)c(-c2ncc3c(=O)n([C@@H]4CC[C@@H](N)C4)ccc3n2)cc2cn(C)nc12` [Compound 1476, 6-[(1R,3R)-3-aminocyclopentyl]-2-(6-hydroxy-2,7-dimethyl-indazol-5-yl)pyrido[4,3-d]pyrimidin-5-one], for which the IC50 lay in the range of 1 to 10 µM.

For the molecule `Cc1c(O)c(-c2ncc3c(=O)n([C@@H]4CC[C@H](N)C4)ccc3n2)cc2cn(C)nc12` [Compound 1477], the IC50 lay in the range of 0.1 to 1 µM.

Consider `CNC12CCC(n3ccc4nc(-c5cc6cn(C)nc6c(C)c5O)ncc4c3=O)(CC1)C2` [Compound 1479], for which the IC50 lay in the range of 1 to 10 µM.

For the molecule `Cc1c(O)c(-c2ncc3c(=O)n([C@H]4CCNC5(CC5)C4)ccc3n2)cc2cn(C)nc12` [Compound 1512], the concentration for half-maximal inhibition (IC50) was in the range of 0.1 to 1 µM.

On to `Cc1c(O)c(-c2nc(C)c3c(=O)n([C@@H]4CCNC5(CC5)C4)ccc3n2)cc2cn(C)nc12` [Compound 1515, (R)-2-(6-hydroxy-2,7-dimethyl-2H-indazol-5-yl)-4-methyl-6-(4-azaspiro[2.5]octan-7-yl)pyrido[4,3-d]pyrimidin-5(6H)-one], for which the half-maximal inhibitory concentration (IC50) fell in the range of 0.1 to 1 µM.

The next assay deals with Target C. The assay can be described thus: HiBiT protein abundance assay, Target C (Promega Nano-Glo HiBiT Lytic Detection System, knock-in K562 cell line). The conditions noted are these: Homo sapiens, K562, 24 h, HiBiT K562 cell line, 24 hours, top dose 10 μM; read-out: Effect on protein abundance, Target C (IC50 category). The assay is classed as cell-based, human. In outline: as §1
Take `Cc1nc2c(F)cc(-c3ccc4c(c3)CCN(C3CCNCC3)C4=O)cc2s1` [Compound 226]: the half-inhibitory concentration (IC50) was over 10 µM.

Consider `Cc1cn2cc(-c3ccc4c(=O)n(C5CCN(C)CC5)cnc4c3F)cc(F)c2n1` [Compound 227], for which the IC50 is over 10 µM.

In the case of `Cc1cn2cc(-n3cnc4cc(N5CCNCC5)ccc4c3=O)cc(F)c2n1` [Compound 228], the IC50 is 0.1 to 1 µM.

`Cc1cn2cc(-n3cnc4cc(N5CCN(C)CC5)ccc4c3=O)cc(F)c2n1` [Compound 229]: the IC50 is over 10 µM.

On to `Cc1cn2cc(-c3cc(F)c4c(=O)n(C5CCNCC5)cnc4c3)cc(F)c2n1` [Compound 230], for which the IC50 lay within 0.1 to 1 µM.

On to `Cc1cn2cc(-c3cc(F)c4c(=O)n(C5CCN(C)CC5)cnc4c3)cc(F)c2n1` [Compound 231, 5-fluoro-7-{8-fluoro-2-methylimidazo[1,2-a]pyridin-6-yl}-3-(1-methylpiperidin-4-yl)quinazolin-4-one], for which the IC50 was in the range of 0.1 to 1 µM.

In the case of `Cc1cc(-c2cc(F)c3c(=O)n(C4CCNCC4)cnc3c2)cc2cn(C)nc12` [Compound 232], the half-maximal inhibitory concentration (IC50) is 0.1 to 1 µM.

With `Cc1cc(-c2cc(F)c3c(=O)n(C4CCN(C)CC4)cnc3c2)cc2cn(C)nc12` [Compound 233], the IC50 lay in the range of 0.1 to 1 µM.

Turning to `Cc1cc(-c2ccc3c(=O)n(C4CCNCC4)cnc3c2F)cc2cn(C)nc12` [Compound 234], the half-inhibitory concentration (IC50) was 1 to 10 µM.

With `Cc1cc(-c2ccc3c(=O)n(C4CCN(C)CC4)cnc3c2F)cc2cn(C)nc12` [Compound 235], the half-inhibitory concentration (IC50) is over 10 µM.

As to `Cc1cn2cc(-c3ccc4c(=O)n(C5CCNC6(CC6)C5)cnc4c3)cc(F)c2n1` (centres unmarked) [Compound 236], the IC50 was in the range of 1 to 10 µM.

In the case of `Cc1cn2cc(-c3ccc4c(=O)n(C5CCNC(C)(C)C5)cnc4c3)cc(F)c2n1` (centres unmarked) [Compound 237], the half-inhibitory concentration (IC50) is 1 to 10 µM.

`Cc1cn2nc(-n3cnc4cc(N5CCNCC5)ccc4c3=O)cc(C)c2n1` [Compound 241]: the concentration for half-maximal inhibition (IC50) was in the range of 1 to 10 µM.

With `Cc1cn2nc(-c3cc(F)c4c(=O)n(C5CCN(C)CC5)cnc4c3)cc(C)c2n1` [Compound 242], the IC50 is under 0.1 µM.

As for `Cc1cn2cc(-c3ncc4c(=O)n([C@H]5CCNC6(CC6)C5)ccc4n3)cc(F)c2n1` [Compound 1458, 6-[(7S)-4-azaspiro[2.5]octan-7-yl]-2-(8-fluoro-2-methyl-imidazo[1,2-a]pyridin-6-yl)pyrido[4,3-d]pyrimidin-5-one], the concentration for half-maximal inhibition (IC50) is 0.1 to 1 µM.

`Cc1c(O)c(-c2ncc3c(=O)n([C@H]4CC[C@H](N(C)C)CC4)ccc3n2)cc2cn(C)nc12` [Compound 1459, 6-((1r,4r)-4-(dimethylamino)cyclohexyl)-2-(6-hydroxy-2,7-dimethyl-2H-indazol-5-yl)pyrido[4,3-d]pyrimidin-5(6H)-one]: the IC50 fell in the range of 0.1 to 1 µM.

For `Cc1c(O)c(-c2ncc3c(=O)n([C@H]4CC[C@@H](N(C)C)CC4)ccc3n2)cc2cn(C)nc12` [Compound 1460, 6-((1s,4s)-4-(dimethylamino)cyclohexyl)-2-(6-hydroxy-2,7-dimethyl-2H-indazol-5-yl)pyrido[4,3-d]pyrimidin-5(6H)-one], the IC50 is 1 to 10 µM.

On to `Cc1c(O)c(-c2ncc3c(=O)n([C@H]4CCN[C@H](C)C4)ccc3n2)cc2cn(C)nc12` [Compound 1461, 2-(6-hydroxy-2,7-dimethyl-indazol-5-yl)-6-[(2R,4S)-2-methyl-4-piperidyl]pyrido[4,3-d]pyrimidin-5-one], for which the IC50 is 0.1 to 1 µM.

Take `Cc1c(O)c(-c2ncc3c(=O)n([C@@H]4CCN[C@@H](C)C4)ccc3n2)cc2cn(C)nc12` [Compound 1462, 2-(6-hydroxy-2,7-dimethyl-indazol-5-yl)-6-[(2S,4R)-2-methyl-4-piperidyl]pyrido[4,3-d]pyrimidin-5-one]: the IC50 fell in the range of 0.1 to 1 µM.

With `Cc1c(O)c(-c2ccc3c(=O)n([C@@H]4C[C@@H](C)N[C@@H](C)C4)ccc3n2)cc2cn(C)nc12` [Compound 1463, 6-[(2S,6R)-2,6-dimethyl-4-piperidyl]-2-(6-hydroxy-2,7-dimethyl-indazol-5-yl)-1,6-naphthyridin-5-one], the IC50 was in the range of 1 to 10 µM.

Consider `Cc1c(O)c(-c2ccc3c(=O)n([C@H]4C[C@@H](C)N[C@@H](C)C4)ccc3n2)cc2cn(C)nc12` [Compound 1464, 6-[(2S,6R)-2,6-dimethyl-4-piperidyl]-2-(6-hydroxy-2,7-dimethyl-indazol-5-yl)-1,6-naphthyridin-5-one], for which the half-inhibitory concentration (IC50) lay within 0.1 to 1 µM.

With `Cn1cc2cc(-c3ncc4c(=O)n([C@H]5CCNC5)ccc4n3)c(O)c(F)c2n1` [Compound 1465], the 50% inhibitory concentration (IC50) was 0.1 to 1 µM.

As to `Cc1cn2nc(-c3ccc4c(=O)n(C5CCN(CCO)C6(CC6)C5)ncc4n3)cc(C)c2n1` (centres unmarked) [Compound 1541, 2-(2,8-dimethylimidazo[1,2-b]pyridazin-6-yl)-6-[4-(2-hydroxyethyl)-4-azaspiro[2.5]octan-7-yl]pyrido-[2,3-d]pyridazin-5-one], the IC50 lay within 0.1 to 1 µM.
